Columns and labels:
[1] = target: T1, Recombinant ALK kinase (Homo sapiens, UniProt Q9UM73); assay: ALK kinase inhibitory activity, ELISA-based in vitro kinase assay; type: biochemical; details: purified rALK, 0.3 mM ATP, read-out: ALK IC50
T1 construct: made in house; host or cells: Sf9 insect cells (baculovirus)
Procedure: 36. Alk Kinase Inhibitory Activity
(§1) Method: ELISA-Based In Vitro Kinase Assay
(§2) Recombinant ALK kinase was expressed in Sf9 insect cells using the pBlueBacHis2C baculovirus vector system and purified using an anion exchange Fast Flow Q-sepharose column (Amersham-Pharmacia Biotech) followed by HiTrap™-nickel affinity column (Amersham-Pharmacia Biotech). Purified ALK protein was used to screen inhibitors in the ELISA-based kinase assay. A Nunc Immuno 96 well plate was incubated overnight at 37° C. with coating solution (125 μL/well) containing ALK peptide substrate ([…]) (SEQ ID NO: 1) at various concentrations in PBS. Wells were then washed with 200 μL of wash buffer (PBS-Tween 0.05%) and left to dry for at least 2 h at 37° C. The kinase reaction was performed in the presence of 50 mM Tris pH 7.5, 5 mM MnCl2, 5 mM MgCl2, 0.3 mM ATP and purified rALK in a total volume of 100 μL/well at 30° C. for 15 min. For inhibitor testing the reaction mix was preincubated with the inhibitor or solvent control for 10 min at room temperature before transferring to the ELISA plate. After the reaction wells were washed 5 times with 200 μL of wash buffer. Phosphorylated peptide was detected using 100 μL/well of a mouse monoclonal anti-phosphotyrosine antibody (clone 4G10 Upstate Biotech Ltd) diluted 1:2000 in PBS+4% BSA. After 30 min incubation at room temperature the antibody was removed and wells were washed as described above. 100 μL of a secondary antibody (anti-mouse IgG, Horseradish Peroxidase linked whole antibody, Amersham Pharmacia Biotech) diluted 1:1000 in PBS+4% BSA was added to each well and the plate was incubated again for 30 min at room temperature before washing as above. The plate was developed using 100 μL/well TMB Substrate Solution (Endogen) and the reaction was stopped by adding an equiv.ual volume of H2SO4 0.36 M. Finally, the absorbance was read at 450 nm using an Ultrospec® 300 spectrophotometer (Amersham-Pharmacia Biotech). The concentration of the test solution showing 50% inhibition as compared with the control was expressed as IC50 (μM).

[2] = target: T2, Recombinant Abl T315I protein (Homo sapiens, UniProt P00519, T315I); assay: Abl T315I mutant kinase inhibitory activity, ELISA-based in vitro kinase assay; type: biochemical; details: purified Abl T315I, 0.3 mM ATP
T2 construct: made in house; host or cells: Sf9 cells (baculovirus)
Procedure: as §2
37. Abl T315I Mutant Kinase Inhibitory Activity
as §1
Recombinant Abl T315I protein was expressed in Sf9 cells using the pBlueBacHis2C baculovirus expression vector. Abl T315I was purified using an anion exchange Fast Flow Q-sepharose column (Amersham-Pharmacia Biotech) followed by HiTrap™-nickel affinity column (Amersham-Pharmacia Biotech). Purified Abl T315I was used in the ELISA-based kinase assay to screen inhibitors as described above. The kinase reaction was performed in the presence of 50 mM Tris pH 7.5, 1 mM MnCl2, 5 mM MgCl2, 0.3 mM ATP, peptide substrate ([…]) (SEQ ID NO: 1) and purified Abl T315I. The concentration of the test solution showing 50% inhibition as compared with the control was expressed as IC50 (μM).

[3] = tested on: parent untransformed BaF3 cells; assay: Tritiated thymidine uptake cell proliferation assay, parental BaF3 (control); type: cell-based; details: Mus musculus, 3[H]-thymidine uptake, 72 h, medium with IL-3, read-out: BaF parental IC50
Procedure: (§3) Method: Tritiated Thymidine Uptake Cell Proliferation Assay
(§4) The following procedure was used with parent untransformed BaF3 cells, BaF3 cells transformed with the oncogenic fusion protein NPM/ALK, NPM/ALK positive SUDHL-1 cells, ALK-negative U937 cells, NPM/ALK positive KARPAS-299 cells. The parent untransformed BaF3 cells and Alk-negative U937 cells are used as controls. Cells were seeded in U-bottomed 96-well plates at 10 000 cells/well in a volume of 100 μL in supplemented medium. In the case of the parent untransformed BaF3 cells, the medium was supplemented with IL-3. Serial dilutions of inhibitors were added to the appropriate wells and volumes adjusted to 200 μL. Controls were treated with the equivalent volume of vehicle, DMSO, alone. Plates were incubated at 37° C. for 72 h. ^3[H]-thymidine (1 μCi/well) was added for the last 16 h of incubation. Cells were harvested on to paper filters and ^3[H]-thymidine incorporation was measured using a β scintillation counter (1430 MicroBeta, Wallac, Turku, Finland). The 50% inhibitory concentration (IC50) was defined as the concentration of inhibitor, expressed in micromolar, that gave a 50% decrease in ^3[H]-thymidine uptake compared with controls.
as §4, with “protein bcr-abl, Abl-negative” for “protein NPM/ALK, NPM/ALK positive SUDHL-1 cells, ALK-negative”, “cells, or Bcr-abl” for “cells, NPM/ALK”, “positive LAMA-84” for “positive KARPAS-299”, “and Abl-negative” for “and Alk-negative”, “in ^3H-thymidine” for “in ^3[H]-thymidine”
as §4, with “RET-PTC2, or RET-negative 11937” for “NPM/ALK, NPM/ALK positive SUDHL-1 cells, ALK-negative U937 cells, NPM/ALK positive KARPAS-299”, “RET-negative” for “Alk-negative”

[4] = target: T3, BaF3 cells transformed with the oncogenic fusion protein NPM/ALK (Homo sapiens, UniProt Q9UM73); assay: Tritiated thymidine uptake cell proliferation assay, BaF3 NPM/ALK; type: cell-based; details: 3[H]-thymidine uptake, 72 h; read-out: BaF NPM/ALK IC50
T3 construct: fused on or other part: P06748 (Nucleophosmin)
T3 sequence (Q9UM73 whole entry, change not shown, the tested form may be a part): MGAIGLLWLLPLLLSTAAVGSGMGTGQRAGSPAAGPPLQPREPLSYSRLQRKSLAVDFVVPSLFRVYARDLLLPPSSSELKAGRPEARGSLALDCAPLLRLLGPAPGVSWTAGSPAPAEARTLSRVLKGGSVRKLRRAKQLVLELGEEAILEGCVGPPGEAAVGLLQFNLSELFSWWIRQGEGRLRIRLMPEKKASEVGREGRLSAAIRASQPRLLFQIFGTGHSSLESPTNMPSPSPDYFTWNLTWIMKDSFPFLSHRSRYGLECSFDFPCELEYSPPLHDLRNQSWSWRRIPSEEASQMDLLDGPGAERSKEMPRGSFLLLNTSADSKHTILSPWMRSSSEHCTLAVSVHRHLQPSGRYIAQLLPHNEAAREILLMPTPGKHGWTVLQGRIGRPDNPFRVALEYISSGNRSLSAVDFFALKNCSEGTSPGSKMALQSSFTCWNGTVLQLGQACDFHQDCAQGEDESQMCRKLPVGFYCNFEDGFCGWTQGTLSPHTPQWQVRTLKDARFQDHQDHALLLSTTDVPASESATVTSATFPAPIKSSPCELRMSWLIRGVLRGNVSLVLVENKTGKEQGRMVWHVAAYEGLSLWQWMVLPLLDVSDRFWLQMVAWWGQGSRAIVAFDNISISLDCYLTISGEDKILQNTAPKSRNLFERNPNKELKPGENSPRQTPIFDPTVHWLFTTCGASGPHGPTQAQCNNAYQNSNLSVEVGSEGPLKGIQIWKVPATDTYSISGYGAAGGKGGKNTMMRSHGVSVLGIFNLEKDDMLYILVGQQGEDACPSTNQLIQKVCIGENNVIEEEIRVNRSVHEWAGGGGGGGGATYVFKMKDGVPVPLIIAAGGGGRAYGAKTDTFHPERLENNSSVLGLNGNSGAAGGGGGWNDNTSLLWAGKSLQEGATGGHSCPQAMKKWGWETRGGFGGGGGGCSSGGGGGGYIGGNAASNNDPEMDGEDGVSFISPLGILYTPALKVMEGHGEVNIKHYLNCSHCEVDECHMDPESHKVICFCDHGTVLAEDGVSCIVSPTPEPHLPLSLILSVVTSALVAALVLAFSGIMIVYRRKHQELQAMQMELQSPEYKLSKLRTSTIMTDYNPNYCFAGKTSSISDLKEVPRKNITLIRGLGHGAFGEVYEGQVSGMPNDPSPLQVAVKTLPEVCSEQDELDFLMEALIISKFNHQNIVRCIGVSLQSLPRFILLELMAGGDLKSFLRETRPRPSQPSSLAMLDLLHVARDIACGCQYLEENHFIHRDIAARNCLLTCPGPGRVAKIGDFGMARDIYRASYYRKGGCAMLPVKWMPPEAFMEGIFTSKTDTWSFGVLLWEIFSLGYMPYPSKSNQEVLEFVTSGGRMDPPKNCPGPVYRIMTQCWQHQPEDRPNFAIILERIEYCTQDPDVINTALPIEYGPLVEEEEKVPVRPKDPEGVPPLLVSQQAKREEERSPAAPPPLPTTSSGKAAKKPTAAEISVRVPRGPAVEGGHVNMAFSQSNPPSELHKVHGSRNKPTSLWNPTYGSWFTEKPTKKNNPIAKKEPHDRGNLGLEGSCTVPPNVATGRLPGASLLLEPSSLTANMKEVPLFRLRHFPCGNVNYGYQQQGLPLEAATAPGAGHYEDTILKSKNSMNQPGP
Procedure: Inhibition of the proliferation of NPM/ALK positive cells
as §3, §4

T1 sequence (Q9UM73 19-1620): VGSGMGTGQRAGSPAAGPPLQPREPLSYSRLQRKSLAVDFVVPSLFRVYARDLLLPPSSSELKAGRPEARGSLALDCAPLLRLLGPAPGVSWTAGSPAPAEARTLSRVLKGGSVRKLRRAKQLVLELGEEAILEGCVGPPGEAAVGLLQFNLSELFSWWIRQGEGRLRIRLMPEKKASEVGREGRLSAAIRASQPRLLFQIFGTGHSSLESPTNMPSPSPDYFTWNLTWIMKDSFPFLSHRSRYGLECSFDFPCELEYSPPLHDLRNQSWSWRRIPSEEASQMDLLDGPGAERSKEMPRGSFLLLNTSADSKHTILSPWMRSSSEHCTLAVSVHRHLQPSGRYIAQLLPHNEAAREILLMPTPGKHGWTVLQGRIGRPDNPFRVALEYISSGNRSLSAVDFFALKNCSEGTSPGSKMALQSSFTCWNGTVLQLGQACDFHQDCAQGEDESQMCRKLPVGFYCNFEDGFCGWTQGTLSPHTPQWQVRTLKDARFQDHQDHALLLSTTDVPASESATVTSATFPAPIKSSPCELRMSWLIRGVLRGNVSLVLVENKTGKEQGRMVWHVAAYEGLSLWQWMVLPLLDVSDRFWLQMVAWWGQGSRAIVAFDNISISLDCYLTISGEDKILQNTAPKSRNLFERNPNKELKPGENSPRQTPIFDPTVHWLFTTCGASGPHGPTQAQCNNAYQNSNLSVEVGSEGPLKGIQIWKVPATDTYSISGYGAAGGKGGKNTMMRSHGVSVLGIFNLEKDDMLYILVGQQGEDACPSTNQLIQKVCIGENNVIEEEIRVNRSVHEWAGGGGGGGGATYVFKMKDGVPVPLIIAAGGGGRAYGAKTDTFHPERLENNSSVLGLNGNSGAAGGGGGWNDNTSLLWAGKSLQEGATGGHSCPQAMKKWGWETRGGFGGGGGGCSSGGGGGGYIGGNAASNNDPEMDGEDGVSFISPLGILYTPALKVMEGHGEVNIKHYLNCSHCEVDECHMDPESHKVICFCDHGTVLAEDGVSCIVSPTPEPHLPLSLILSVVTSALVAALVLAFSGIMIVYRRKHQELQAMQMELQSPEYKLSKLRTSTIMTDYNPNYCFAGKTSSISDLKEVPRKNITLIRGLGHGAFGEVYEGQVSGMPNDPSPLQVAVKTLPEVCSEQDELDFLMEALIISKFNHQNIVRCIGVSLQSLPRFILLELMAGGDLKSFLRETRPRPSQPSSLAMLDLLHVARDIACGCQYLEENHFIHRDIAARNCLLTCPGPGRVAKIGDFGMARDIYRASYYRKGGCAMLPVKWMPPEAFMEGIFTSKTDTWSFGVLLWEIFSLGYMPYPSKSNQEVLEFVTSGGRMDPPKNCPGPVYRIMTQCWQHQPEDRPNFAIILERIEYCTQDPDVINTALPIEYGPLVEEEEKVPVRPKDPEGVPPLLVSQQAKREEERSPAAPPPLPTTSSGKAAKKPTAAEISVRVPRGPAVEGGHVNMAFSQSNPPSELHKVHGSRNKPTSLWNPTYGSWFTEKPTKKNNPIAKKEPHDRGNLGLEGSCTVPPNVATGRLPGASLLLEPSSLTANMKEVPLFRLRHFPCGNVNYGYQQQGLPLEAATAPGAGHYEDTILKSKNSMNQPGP

Row | SMILES | melting point | other results
1 | C(=C\c1ccnc2[nH]c3ccccc3c12)/c1ccccc1 [R310, 4-(2′-phenylethenyl)-9H-pyrido[2,3-b]indole] | > 220 °C | 
2 | Clc1cnc2[nH]c3ccc(-c4ccc(CN5CCOCC5)cc4)cc3c2c1 [R313, 3-chloro-6-(4-(morpholin-4-yl)methylphenyl)-9H-pyrido[2,3-b]indole] |  | IC50 [1]: 8.8 ± 2.7 µM; IC50 [2]: > 10 µM; IC50 [3]: 0.5 µM; GI50 [4]: 0.64 µM
3 | O=[N+]([O-])c1cccc(Nc2ccc3c(n2)[nH]c2ccccc23)c1 [R317, N-(3-nitrophenyl)-9H-pyrido[2,3-b]indol-2-amine] |  | IC50 [1]: 8.2 ± 2.1 µM; IC50 [2]: 26 µM; IC50 [3]: 6.3 µM; GI50 [4]: 2.6 µM
4 | O=[N+]([O-])c1ccccc1Nc1ccc2c(n1)[nH]c1ccccc12 [R319, N-(2-nitrophenyl)-9H-pyrido[2,3-b]indol-2-amine] |  | IC50 [1]: 4.7 ± 0.2 µM; IC50 [2]: 16 µM; IC50 [3]: 44 µM; GI50 [4]: 11 µM
5 | O=C(O)c1ccc2[nH]c3ncc(Cl)cc3c2c1 [compound 5, 3-chloro-9H-pyrido[2,3-b]indol-6-carboxylic acid] | > 295 °C | 
6 | Cc1ccc2c(n1)[nH]c1ccc(C(=O)O)cc12 [compound 6, 2-methyl-9H-pyrido[2,3-b]indol-6-carboxylic acid] | > 295 °C | 
7 | Clc1ccc2c(n1)[nH]c1ccc(Br)cc12 [compound 9, 6-bromo-2-chloro-9H-pyrido[2,3-b]indole] | > 220 °C | 
8 | Clc1ccnc2[nH]c3ccc(Br)cc3c12 [compound 10, 6-bromo-4-chloro-9H-pyrido[2,3-b]indole] | > 220 °C | 
9 | O=C(O)CCC(=O)c1ccc2[nH]c3ncc(Cl)cc3c2c1 [compound 11, 4-(3-Chloro-9H-pyrido[2,3-b]indol-6-yl)-4-oxo-butyric acid] | 243 °C | 
10 | O=C(O)CCC(=O)c1ccc2[nH]c3nc(Cl)ccc3c2c1 [compound 12, 4-(2-Chloro-9H-pyrido[2,3-b]indol-6-yl)-4-oxo-butyric acid] | 280.8 °C | 
11 | O=S(=O)(c1ccccc1)n1c2ccc(Br)cc2c2ccc(Cl)nc21 [compound 19, 9-benzenesulfonyl-6-bromo-2-chloro-9H-pyrido[2,3-b]indole] | 204 to 206 °C | 
12 | O=S(=O)(c1ccccc1)n1c2ccc(Br)cc2c2cc(Cl)cnc21 [compound 20, 9-benzenesulfonyl-6-bromo-3-chloro-9H-pyrido[2,3-b]indole] | 242 °C | 
13 | O=S(=O)(c1ccccc1)n1c2ccc(Br)cc2c2c(Cl)ccnc21 [compound 21, 9-benzenesulfonyl-6-bromo-4-chloro-9H-pyrido[2,3-b]indole] | 212 to 214 °C | 
14 | COc1ccc(-c2ccc3c(c2)c2cc(Cl)cnc2n3S(=O)(=O)c2ccccc2)cc1 [compound 26, 9-benzenesulfonyl-3-chloro-6-(4-methoxyphenyl)-9H-pyrido[2,3-b]indole] | > 220 °C | 
15 | O=S(=O)(c1ccccc1)n1c2ccc(/C=C/c3ccccc3)cc2c2cc(Cl)cnc21 [compound 27, 9-benzenesulfonyl-3-chloro-6-(2′-phenylethenyl)-9H-pyrido[2,3-b]indole] | 190 to 192 °C | 
16 | COc1ccc(-c2ccc3c(c2)c2ccc(Cl)nc2n3S(=O)(=O)c2ccccc2)cc1 [compound 32, 9-benzenesulfonyl-2-chloro-6-(4-methoxyphenyl)-9H-pyrido[2,3-b]indole] | 176 to 178 °C | 
17 | COc1ccc(-c2ccc3c(c2)c2c(Cl)ccnc2n3S(=O)(=O)c2ccccc2)cc1 [compound 34, 9-benzenesulfonyl-4-chloro-6-(4-methoxyphenyl)-9H-pyrido[2,3-b]indole] | 209 to 211 °C | 
18 | O=S(=O)(c1ccccc1)n1c2ccc(/C=C/c3ccccc3)cc2c2c(Cl)ccnc21 [compound 35, 9-benzenesulfonyl-4-chloro-6-(2′-phenylethenyl)-9H-pyrido[2,3-b]indole] | 216 to 218 °C | 
19 | COc1ccc(-c2ccc3c(c2)c2ccc(-c4ccc(OC)cc4)nc2n3S(=O)(=O)c2ccccc2)cc1 [compound 36, 9-benzenesulfonyl-2,6-di(4-methoxyphenyl)-9H-pyrido[2,3-b]indole] | 206 to 208 °C | 
20 | COc1ccc(-c2ccc3c(c2)c2c(-c4ccc(OC)cc4)ccnc2n3S(=O)(=O)c2ccccc2)cc1 [compound 37, 9-benzenesulfonyl-4,6-di(4-methoxyphenyl)-9H-pyrido[2,3-b]indole] | 162 to 164 °C | 
21 | COc1ccc(-c2ccc3c(c2)c2ccc(/C=C/c4ccccc4)nc2n3S(=O)(=O)c2ccccc2)cc1 [compound 43, 9-benzenesulfonyl-6-(4-methoxyphenyl)-2-(2′-phenylethenyl)-9H-pyrido[2,3-b]indole] | 193 to 195 °C | 
22 | COc1ccc(-c2ccc3c(c2)c2c(/C=C/c4ccccc4)ccnc2n3S(=O)(=O)c2ccccc2)cc1 [compound 45, 9-benzenesulfonyl-6-(4-methoxyphenyl)-4-(2′-phenylethenyl)-9H-pyrido[2,3-b]indole] | 190 to 192 °C | 
23 | O=S(=O)(c1ccccc1)n1c2ccc(CCc3ccccc3)cc2c2cc(Cl)cnc21 [compound 61, 9-(benzenesulfonyl)-3-chloro-6-(2′-phenylethyl)-9H-pyrido[2,3-b]indole] | 158 to 162 °C | 

Reference: patent US8895744B2, “Alfa-carboline inhibitors of NPM-ALK, RET, and Bcr-Abl” (Universita' Degli Studi di Milano-Bicocca, priority 2008, dated 2014)
